From ChEMBL document CHEMBL1201862, “PubChem BioAssay data set” (2004)
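48-hour exposure; five concentrations; linearly interpolated endpoints. GI50: concentration for 50% inhibition of growth.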 Activity calls are given as the source filed them. Cut-off read from the data, not from the text of the source: active = GI50 up to about 1.1 µM and inactive = higher.

Experiments:
Test in all cases: inhibition of tumour cell growth, NCI panel, 48 h
[1] = system: HCT-15
[2] = system: OVCAR-5
[3] = system: RPMI-8226
[4] = system: HCT-116
[5] = system: TK-10
[6] = system: SF-539
[7] = system: DU-145
[8] = system: T47D
[9] = system: HCC 2998
[10] = system: RXF 393
[11] = system: MCF7
[12] = system: PC-3
[13] = system: SK-MEL-5
[14] = system: EKVX
[15] = system: NCI-H226
[16] = system: 786-0
[17] = system: SN12C
[18] = system: M19-MEL
[19] = system: DLD-1
[20] = system: DMS-114

SMILES | GI50 [1] [µM] | GI50 [2] | GI50 [3] | GI50 [4] | GI50 [5] | GI50 [6] | GI50 [7] | GI50 [8] | GI50 [9] | GI50 [10] | GI50 [11] | GI50 [12] | GI50 [13] | GI50 [14] | GI50 [15] | GI50 [16] | GI50 [17] | GI50 [18] | GI50 [19] | GI50 [20]
OC(CN1CCCCC1)c1ccc(/C=C/c2ccc(Cl)cc2)cc1 (stereo not drawn) | 25.2 | 31.8 µM (inactive) | 27.6 µM (inactive) | 38.9 µM (inactive) | > 100 µM (inactive) | 43.6 µM (inactive) | > 100 µM (inactive) | > 100 µM (inactive) | 46 µM (inactive) | > 100 µM (inactive) | > 100 µM (inactive) | 90.6 µM (inactive) | 22.3 µM (inactive) | > 100 µM (inactive) | > 100 µM (inactive) | 56.5 µM (inactive) | > 100 µM (inactive) | – | – | –
O=C(O/N=C1/CCCC/C1=C\c1ccccc1)c1ccc(Cl)c(Cl)c1 | 33.3 | 69.2 µM (inactive) | 36.2 µM (inactive) | 13.6 µM (inactive) | 23.2 µM (inactive) | 24.5 µM (inactive) | – | – | > 100 µM (inactive) | 27.7 µM (inactive) | – | – | 38.5 µM (inactive) | 38.3 µM (inactive) | 45.9 µM (inactive) | 30.2 µM (inactive) | 49.8 µM (inactive) | 68.7 µM (inactive) | 84.5 µM (inactive) | –
COC(=O)C1(CCC(C)=O)CCCCCC1=O (stereo not drawn) | > 100 | > 100 µM (inactive) | > 100 µM (inactive) | > 100 µM (inactive) | > 100 µM (inactive) | > 100 µM (inactive) | > 100 µM (inactive) | > 100 µM (inactive) | > 100 µM (inactive) | > 100 µM (inactive) | > 100 µM (inactive) | > 100 µM (inactive) | > 100 µM (inactive) | > 100 µM (inactive) | > 100 µM (inactive) | > 100 µM (inactive) | > 100 µM (inactive) | – | – | –
Cn1c(NC(=O)NC23CC4CC(CC(C4)C2)C3)nc2ccccc21 | > 100 | > 100 µM (inactive) | > 100 µM (inactive) | 15.3 µM (inactive) | 39.5 µM (inactive) | 81.1 µM (inactive) | – | – | > 100 µM (inactive) | 15.7 µM (inactive) | – | – | 91 µM (inactive) | 83.8 µM (inactive) | 93.5 µM (inactive) | 17.1 µM (inactive) | 68.5 µM (inactive) | 57.5 µM (inactive) | > 100 µM (inactive) | –
OC1c2ccccc2[C@@H]2[C@H]1[C@@H](c1ccccc1)C1(Cc3ccccc3C1O)[C@H]2c1ccccc1 (stereo partly drawn) | 4.07 | 11.1 µM (inactive) | 2.84 µM (inactive) | 3.03 µM (inactive) | 16.1 µM (inactive) | 13.4 µM (inactive) | 9.86 µM (inactive) | 6.71 µM (inactive) | 1.91 µM (inactive) | 2 µM (inactive) | 1.99 µM (inactive) | 3 µM (inactive) | 6.21 µM (inactive) | 6.35 µM (inactive) | 5.28 µM (inactive) | 2.96 µM (inactive) | 1.77 µM (inactive) | – | – | –
N#Cc1c(N)nc2c3c1NC(=O)C(C(N)=O)C3c1ccccc1O2 (stereo not drawn) | > 100 | > 100 µM (inactive) | 63 µM (inactive) | > 100 µM (inactive) | > 100 µM (inactive) | 74 µM (inactive) | 67.6 µM (inactive) | 95.9 µM (inactive) | > 100 µM (inactive) | 75.2 µM (inactive) | > 100 µM (inactive) | > 100 µM (inactive) | > 100 µM (inactive) | 37.3 µM (inactive) | > 100 µM (inactive) | 37.9 µM (inactive) | > 100 µM (inactive) | – | – | –
O=C(c1ccccc1)C(C(=O)c1ccccc1)C1(O)C(=O)c2ccccc2C1=O | 44.2 | 60.3 µM (inactive) | 31.1 µM (inactive) | > 10 µM (inactive) | 3.01 µM (inactive) | 32.1 µM (inactive) | – | – | 39.4 µM (inactive) | 0.253 µM (active) | – | – | > 10 µM (inactive) | 32.5 µM (inactive) | 37.1 µM (inactive) | 26.9 µM (inactive) | 27.8 µM (inactive) | 16.6 µM (inactive) | – | > 10 µM (inactive)
Cc1cc(O)c(C=O)c2c1C(=O)Oc1c(CO)c(O)c3c(c1O2)C(O)OC3=O (stereo not drawn) [SLAZINIC ACID] | 55.2 | > 100 µM (inactive) | 17.4 µM (inactive) | 69.8 µM (inactive) | > 100 µM (inactive) | > 100 µM (inactive) | > 100 µM (inactive) | 54.5 µM (inactive) | > 100 µM (inactive) | 87.5 µM (inactive) | 24.5 µM (inactive) | > 100 µM (inactive) | 34.3 µM (inactive) | > 100 µM (inactive) | 38.8 µM (inactive) | > 100 µM (inactive) | > 100 µM (inactive) | – | – | –
COc1cc(Nc2cnc3cc(N)ccc3n2)cc(OC)c1OC | 55.2 | > 100 µM (inactive) | – | > 100 µM (inactive) | > 100 µM (inactive) | > 100 µM (inactive) | – | – | 50.1 µM (inactive) | – | – | – | 69 µM (inactive) | 58.6 µM (inactive) | – | > 100 µM (inactive) | 94.6 µM (inactive) | 74.8 µM (inactive) | > 100 µM (inactive) | 65.8 µM (inactive)
